# In patent US20240409963A1, “Use of Inhibitors to Increase Efficiency of Crispr/CAS Insertions” (AstraZeneca AB, priority 2021, published 2024):
# How the values were obtained:
# [1] = test system: HEK293T cells; assay: Cell confluency and transfection efficiency in CRISPR/Cas-transfected cells, Example 4; format: cell-based; conditions: AZD7648 at a final concentration of 1 mM, FIG. 10
# Description: (§1) The effect of inhibitors of the MMEJ and NHEJ pathways on CRISPR-Cas-induced DNA double stranded break repair pathways was examined using the process shown schematically in FIG. 2A. Briefly, HEK293T cells were seeded into a 96-well plate 20 hours before transfection with plasmids encoding SpCas9 and a guide RNA (sgRNA) targeting CD34 together with a single-stranded oligonucleotide donor (ssDNA). […] The Pol Q inhibitors used are PolQ_2, PolQ_3, PolQ_4, PolQ_5, PolQ_6 or PolQ_7. Sixty hours post-transfection, genomic DNA was harvested and sequenced using deep-targeted amplicon sequencing. Genetic variants of the sequencing data were determined using a bioinformatic workflow, and the percentages of DNA double-stranded break repair by the MMEJ, NHEJ, and HDR pathways were determined using Rational InDel Meta-Analysis (RIMA). See, e.g., Taheri-Ghafarokhi et al, Nuc. Acids Res., 2018, 46 (16): 8417-8434. The RIMA results are plotted as shown in FIG. 2B, where deletions associated with microhomologies are visualized according to the bars shown in the figure.
# HEK293T cells were cultured, transfected, and treated with NHEJ and MMEJ inhibitors as described in Example 1. Cell confluency and transfection efficiency was assessed in transfected cells treated with NHEJ and MMEJ inhibitors.
# [2] = test system: HEK293T cells; assay: PolQ inhibitor ART558 titration on precise gene editing outcomes, Example 10; format: cell-based; conditions: DNAPK inhibitor 1 μM, PolQ inhibitor 0 μM
# Description: (§2) HEK293T cells were seeded into 96-well plates and allowed to attach for 20 hours.
# [3] = test system: HEK293T cells; assay: CRISPR/Cas9 double-strand break repair pathway and knock-in analysis (RIMA, amplicon sequencing), Examples 1-3; format: cell-based
# Description: as §1
# The effect of NHEJ and MMEJ inhibitors on the CRISPR/Cas-mediated knock-in efficiency was determined in both mutated and mapped reads.
# The effect of MMEJ pathway inhibition on mutated and mapped reads was assessed.
# [4] = test system: HEK293T cells; assay: PolQ2 and PolQ6 on precise gene editing outcome at various target-sites, Example 9; format: cell-based; conditions: DNAPK inhibitor 1 μM, PolQ inhibitor 0 μM; for MMEJ indels Mean / NHEJ indels Mean / Total editing Mean: HEK293T, ssDNA donor; for Precise KI fold increase: vs DMSO
# Description: as §2
# [5] = test system: Cas9-inducible iPSCs; assay: SSTR-mediated gene knock-in in Cas9-inducible iPSCs, Example 6; format: cell-based; conditions: single inhibitor, mapped reads, FIG. 13
# Description: (§3) The effect of NHEJ and/or MMEJ pathway inhibition on CRISPR-Cas-induced DNA double stranded break repair pathways in iPSCs was examined. Briefly, iPSCs comprising an inducible Cas9 gene were seeded into a 96-well plate 20 hours before transfection with a plasmid encoding a guide RNA (sgRNA) targeting one of three separate target sites together with a single-stranded oligonucleotide donor (ssDNA), followed by induction of Cas9 expression. […] Sixty hours post-transfection, the percentage of double-stranded break repair by the HDR, NHEJ, and MMEJ pathways was determined as discussed in Example 1.
# The effect of NHEJ and MMEJ pathway inhibition on gene knock-in efficiency mediated by the SSTR pathway in iPSCs was investigated. Briefly, Cas9-inducible iPSCs were cultured and transfected with sgRNA and ssDNA polynucleotides as described in Example 5.
# [6] = test system: HEK293T cells; assay: Off-target editing at HEK3 and HEK4 on- and off-target sites with DNAPK and PolQ inhibitors, Example 12; format: cell-based; conditions: DNAPK inhibitor 1 μM, PolQ inhibitor 0 μM
# Description: as §2
# [7] = test system: HEK293T cells; assay: Different DNAPK inhibitors on precise gene editing outcomes, Example 8; conditions: for HDR to indel ratio / Precise KI fold increase: gINS + ssDNA; for Precise KI fold increase: vs DMSO; for MMEJ indels Mean / NHEJ indels Mean / Total editing Mean: sgRNA CD34 (gINS) + ssDNA, 70 hours post-transfection;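 as to all read-outs here: cells transfected with plasmids for SpCas9-EGFP, editing outcomes quantified from genomic DNA by deep targeted amplicon sequencing with bioinformatic analysis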
# Description: Cells allowed to attach for 12 hours before transfection. Cells were transfected with DNA plasmids encoding for SpCas9-EGFP and a sgRNAs targeting CD34 (gINS) in the presence of single-stranded oligonucleotide donor (ssDNA). 70 hours post-transfection cell confluence and EGFP-based transfection efficiencies were determined with the Incucyte S3. Genomic DNA was extracted and editing outcome was analysed through deep-targeted amplicon sequencing using bioinformatic analysis.
# [8] = test system: induced Pluripotent Stem Cells (iPSC); assay: Double-strand break repair pathways in Cas9-inducible iPSCs, Example 5; format: cell-based; conditions: single inhibitor: AZD7648 1 μM or PolQ inhibitor 3 μM, vs DMSO, FIG. 12
# Description: as §3
# [9] = HEK293T, sgRNA CD34 (gMEJ) + ssDNA
# [10] = SpCas9 + sgRNA CD34 + ssDNA, AZD7648 1 μM alone or in combination with Pol Q inhibitors, vs DMSO controls, FIG. 4
smiles,measurement,setting,value
Cc1cc2ncnn2cc1Nc1ncc2c(n1)n(C1CCOCC1)c(=O)n2C [AZD7648],cell confluency,[1],no significant effect
same,MMEJ indels Mean,[2]; [9],32.6
same,NHEJ indels Mean,[2]; [9],1.3
same,Total editing Mean,[2]; [9],74.4
same,KI to indel ratio,[2]; gMEJ + ssDNA,0.7
same,CRISPR/Cas-mediated editing efficiency,"[3]; AZD7648 1 μM alone and in combination with Pol Q inhibitors, FIG. 5",did not affect
same,double-strand break repair by the HDR pathway,[3]; [10],marked in increase
same,repair by the MMEJ and NHEJ pathways,[3]; [10],decreased
same,MMEJ indels Mean,[4]; target-site gDel,8.9
same,NHEJ indels Mean,[4]; target-site gDel,1.3
same,Total editing Mean,[4]; target-site gDel,77.3
same,MMEJ indels Mean,[4]; target-site gMej,27.9
same,NHEJ indels Mean,[4]; target-site gMej,2.9
same,Total editing Mean,[4]; target-site gMej,83.1
same,MMEJ indels Mean,[4]; target-site glns,13.3
same,NHEJ indels Mean,[4]; target-site glns,1.3
same,Total editing Mean,[4]; target-site glns,83.0
same,KI to indel ratio,[4]; target-site gDel,4.0
same,Precise KI fold increase,[4]; target-site gDel,2.5 fold
same,KI to indel ratio,[4]; target-site gMej,1.0
same,Precise KI fold increase,[4]; target-site gMej,2.2 fold
same,KI to indel ratio,[4]; target-site glns,3.3
same,Precise KI fold increase,[4]; target-site glns,3.3 fold
same,SSTR-mediated gene knock-in at all three target sites,[5],increased
same,OT1 off-target editing Mean,[6]; HEK3 nodonor,41.9
same,OT2 off-target editing Mean,[6]; HEK3 nodonor,32.5
same,OT3 off-target editing Mean,[6]; HEK3 nodonor,16.3
same,OT4 off-target editing Mean,[6]; HEK3 nodonor,0.3
same,on-target editing Mean,[6]; HEK3 nodonor,73.8
same,OT1 off-target editing Mean,[6]; HEK3 ssDNA,17.7
same,OT2 off-target editing Mean,[6]; HEK3 ssDNA,12.7
same,OT3 off-target editing Mean,[6]; HEK3 ssDNA,7.6
same,OT4 off-target editing Mean,[6]; HEK3 ssDNA,0.1
same,on-target editing Mean,[6]; HEK3 ssDNA,61.5
same,OT1 off-target editing Mean,[6]; HEK4 nodonor,12.7
same,OT2 off-target editing Mean,[6]; HEK4 nodonor,7.3
same,OT3 off-target editing Mean,[6]; HEK4 nodonor,36.3
same,on-target editing Mean,[6]; HEK4 nodonor,9.8
same,OT1 off-target editing Mean,[6]; HEK4 ssDNA,5.4
same,OT2 off-target editing Mean,[6]; HEK4 ssDNA,3.3
same,OT3 off-target editing Mean,[6]; HEK4 ssDNA,18.2
same,on-target editing Mean,[6]; HEK4 ssDNA,15.6
same,HDR to indel ratio,[7]; DNAPK inhibitor 0.3125 μM,0.3
same,Precise KI fold increase,[7]; DNAPK inhibitor 0.3125 μM,1.4 fold
same,HDR to indel ratio,[7]; DNAPK inhibitor 0.625 μM,0.5
same,Precise KI fold increase,[7]; DNAPK inhibitor 0.625 μM,2.0 fold
same,HDR to indel ratio,[7]; DNAPK inhibitor 1.25 μM,0.6
same,Precise KI fold increase,[7]; DNAPK inhibitor 1.25 μM,2.0 fold
same,HDR to indel ratio,[7]; DNAPK inhibitor 5 μM,1.1
same,Precise KI fold increase,[7]; DNAPK inhibitor 5 μM,2.9 fold
same,HDR to indel ratio,[7]; DNAPK inhibitor 10 μM,1.1
same,Precise KI fold increase,[7]; DNAPK inhibitor 10 μM,2.8 fold
same,MMEJ indels Mean,[7]; DNAPK inhibitor 0.3125 μM,15.2
same,NHEJ indels Mean,[7]; DNAPK inhibitor 0.3125 μM,28.6
same,Total editing Mean,[7]; DNAPK inhibitor 0.3125 μM,69.5
same,MMEJ indels Mean,[7]; DNAPK inhibitor 0.625 μM,17.4
same,NHEJ indels Mean,[7]; DNAPK inhibitor 0.625 μM,18.3
same,Total editing Mean,[7]; DNAPK inhibitor 0.625 μM,66.0
same,MMEJ indels Mean,[7]; DNAPK inhibitor 1.25 μM,16.5
same,NHEJ indels Mean,[7]; DNAPK inhibitor 1.25 μM,8.7
same,Total editing Mean,[7]; DNAPK inhibitor 1.25 μM,53.3
same,MMEJ indels Mean,[7]; DNAPK inhibitor 5 μM,18.5
same,NHEJ indels Mean,[7]; DNAPK inhibitor 5 μM,2.5
same,Total editing Mean,[7]; DNAPK inhibitor 5 μM,57.5
same,MMEJ indels Mean,[7]; DNAPK inhibitor 10 μM,16.9
same,NHEJ indels Mean,[7]; DNAPK inhibitor 10 μM,2.2
same,Total editing Mean,[7]; DNAPK inhibitor 10 μM,53.7
same,double-strand break repair by the HDR pathway,[8],marked in increase
same,repair by the MMEJ and NHEJ pathways,[8],decreased
